Test results: US4950686A, “Anti-mycoplasma agent” (Shionogi & Co., Ltd., priority 1986, dated 1990)
In brackets after ≈: the same amount, converted by molar mass. Where a name gives a salt, the structure may show the parent alone. Read-outs that look alike come from different tables or passages of the source.

What was measured:
[1] = system: Mycoplasma gallisepticum S6 (standard strain); test: Anti-mycoplasma activity in vitro (MIC, broth dilution), strain S6; type: cell-based; settings: Mg S6, 37° C., 7 days
Description: (§1) (1) Anti-mycoplasma activity test in vitro
(§2) MIC values of each of Tropolones were measured on the following strains according to the following method.
(§3) (a) Mycoplasma gallisepticum
(§4) Medium: Chick PPLO broth supplemented with 20% equine serum (Eiken Kagaku Co., Ltd.)
(§5) Method: Broth dilution method
(§6) Inoculum: Culture incubated at 37° C. for 24-48 hr which is diluted with broth to 10^6 CCU/ml immediately before the use.
(§7) To 1.6 ml of the broth is added 0.2 ml of an agent which has been subjected to 2-fold dilution and then added 0.2 ml of inoculum, which is incubated at 37° C. for 7 days.

[2] = system: Mycoplasma gallisepticum T-7-T (wild strain, tylosin-resistant); test: Anti-mycoplasma activity in vitro (MIC, broth dilution), strain T-7-T; type: cell-based; settings: Mg T-7-T, 37° C., 7 days
Description: as §1, §2, §3
(§8) T-7-T (wild strain, tylosin-resistant)
as §4, §5, §6, §7

[3] = system: Mycoplasma gallisepticum MR-1 (wild strain, tylosin-resistant); test: Anti-mycoplasma activity in vitro (MIC, broth dilution), strain MR-1; type: cell-based; settings: Mg MR-1, 37° C., 7 days
Description: as §1, §2, §3
(§9) MR-1 (wild strain, tylosin-resistant)
as §4, §5, §6, §7

[4] = system: Mycoplasma hyopneumoniae ST-11 (standard strain); test: Anti-mycoplasma activity in vitro (MIC, broth dilution), strain ST-11; type: cell-based; settings: Mh ST-11
Description: as §1, §2
(b) Mycoplasma hyopneumoniae
Strain: ST-11 (standard strain)
Medium: 850 ml of Hanks' solution supplemented with 0.5% lactoalbumin, 50 ml of 25% yeast, 100 ml of equine serum and 4-6 ml of 0.5% phenol red (pH 7.4-7.6)
as §5
Inoculum: Culture which is incubated for 3-4 days and diluted 10 times with the broth if color of the broth becomes yellow then. If it needs over 4 days until color of the broth becomes yellow, it is further subcultured. This is diluted 10 times with the broth to give inoculum.
Assay is done in the same manner as in the above (a).

[5] = system: Mycoplasma gallisepticum S6 (standard strain); test: Mycoplasma gallisepticum air-sac infection method in chicken, strain S6; type: in vivo, Mycoplasma gallisepticum; SPF chicken (white leghorn); settings: 200 mg/kg × once oral, 20 mg/ml sol. c; for Index of Isolation: inoculum 6.3 × 10^4, trachea ND, range 0-6.0
Description: (§10) (2) Test of Effectiveness Mycoplasma gallisepticum air-sac infection method
(§11) Inoculation: To the right air-sac of 9 days old SPF chicken (a white leghorn) which has abstained from water and feed one day before is inoculated 0.20-0.25 ml/chicken of fresh mycoplasma culture incubated for 24-48 hr and diluted with broth (usually 100 times). The concentration in Table 2 is shown in a unit of mg/ml.
(§12) Medium: Chick PPLO broth supplemented with 15% equine serum (Eiken Kagaku Co., Ltd.)
(§13) Administration: A compound of this invention dissolved or suspended in the following solution is orally and forcibly administered once by a cannula immediately after the infection.
(§14) Anatomization and Isolation of Microorganism: The chickens are anatomized 5 days after the infection, and the right and left air sacs are investigated whether they are attacked with a disease or not. The change caused by the disease is represented in four degrees; -: no change, +: slight, ++: medium and +++: serious. Microorganism is isolated from the right and left air-sacs and the trachea by using a sterilized applicator.
(§15) Judgement: Judgement is done through an index of an air-sac disease and an index of a microorganism-isolation.
(§16) Index of an air-sac-disease: First, indexes in the right and left air-sacs are separately calculated according to the following formula;
(§17) {degree of disease (0-3)×chickens}/anatomized chickens
(§18) and the index is calculated by the following formula;
(§19) (index of right air-sac)×1+(index of left air-sac)×2
(§20) Index of a microorganism isolation:
(§21) P: chickens from the right air-sac of which microorganism is isolated,
(§22) Q: chickens from the trachea of which microorganism is isolated,
(§23) R: chickens from the left air-sac of which microorganism is isolated, and
(§24) S: chickens investigated.

[6] = system: Mycoplasma gallisepticum T-7-T (wild strain, tylosin-resistant); test: Mycoplasma gallisepticum air-sac infection method in chicken, strain T-7-T; type: in vivo, Mycoplasma gallisepticum; SPF chicken (white leghorn);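 on Index of Isolation: index = (P×1 + Q×2 + R×3)/S with range 0 to 6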
Description: as §10, §8, §11, §12, §13, §14, §15, §16, §17, §18, §19, §20, §21, §22, §23, §24

[7] = system: Mycoplasma gallisepticum MR-1 (wild strain, tylosin-resistant); test: Mycoplasma gallisepticum air-sac infection method in chicken, strain MR-1;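 on Index of Isolation: index = (P×1 + Q×2 + R×3)/S with range 0 to 6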; type: in vivo, Mycoplasma gallisepticum; SPF chicken (white leghorn); settings: 100 mg/kg × once oral, 10 mg/ml sol. b
Description: as §10, §9, §11, §12, §13, §14, §15, §16, §17, §18, §19, §20, §21, §22, §23, §24

[8] = Mycoplasmoides gallisepticum, 168 h, read-out: MIC
[9] = Mesomycoplasma hyopneumoniae, read-out: MIC
[10] = inoculum 6.3 × 10^4, calcium salt
[11] = 100 mg/kg × once oral, 10 mg/ml sol. b, inoculum 10^2
[12] = 200 mg/kg × once oral, 20 mg/ml DW, inoculum 1.9 × 10^5

O=c1cccccc1O [Compound 10, Tropolone n-propylamine salt]
MIC [1]: 3.13 µg/mL | MIC [2]: 3.13 µg/mL | MIC [3]: 3.13 µg/mL | MIC [4]: 0.78 µg/mL

CCOC(=O)C(C)Oc1cccccc1=O (stereo not drawn) [Compound 20, O-(1-Ethoxycarbonylethyl)tropolone]
MIC [1, 8]: > 25 µg/mL | MIC [2, 8]: > 25 µg/mL | MIC [4, 9]: > 25 µg/mL

CC(C)(C)OC(=O)COc1cccccc1=O [Compound 18, O-(tert-Butyloxycarbonylmethyl)tropolone]
MIC [1, 8]: > 25 µg/mL | MIC [4, 9]: > 25 µg/mL

O=c1cccccc1O [Compound 9, Tropolone ethanolamine salt]
MIC [1]: 3.13 µg/mL | MIC [3]: 3.13 µg/mL | Change of air-sac, left: + (chickens) ([5]; inoculum 6.3 × 10^4): 0 | Change of air-sac, left: ++ (chickens) ([5]; inoculum 6.3 × 10^4): 0 | Change of air-sac, left: +++ (chickens) ([5]; inoculum 6.3 × 10^4): 0 | Change of air-sac, left: - (chickens) ([5]; inoculum 6.3 × 10^4): 5 | Change of air-sac, right: + (chickens) ([5]; inoculum 6.3 × 10^4): 1 | Change of air-sac, right: ++ (chickens) ([5]; inoculum 6.3 × 10^4): 0 | Change of air-sac, right: +++ (chickens) ([5]; inoculum 6.3 × 10^4): 0 | Change of air-sac, right: - (chickens) ([5]; inoculum 6.3 × 10^4): 4 | Isolation, L (left air-sac) ([5]; inoculum 6.3 × 10^4): 0 | Isolation, R (right air-sac) ([5]; inoculum 6.3 × 10^4): 1 | Mycoplasma Isolated Chickens ([5]; inoculum 6.3 × 10^4): 1 | Index of Disease ([5]; inoculum 6.3 × 10^4, range 0-9.0): 0.2 | Index of Isolation [5]: 0.2

O=c1cccccc1O [Compound 5, Tropolone calcium salt]
MIC ([1]; calcium salt): 3.13 µg/mL | MIC ([3]; calcium salt): 1.56 µg/mL | Change of air-sac, left: + (chickens) ([5]; inoculum 6.3 × 10^4): 0 | Change of air-sac, left: ++ (chickens) ([5]; inoculum 6.3 × 10^4): 0 | Change of air-sac, left: +++ (chickens) ([5]; inoculum 6.3 × 10^4): 0 | Change of air-sac, left: - (chickens) ([5]; inoculum 6.3 × 10^4): 5 | Change of air-sac, right: ++ (chickens) ([5]; inoculum 6.3 × 10^4): 0 | Change of air-sac, right: +++ (chickens) ([5]; inoculum 6.3 × 10^4): 0 | Isolation, L (left air-sac) ([5]; inoculum 6.3 × 10^4): 0 | Isolation, R (right air-sac) ([5]; inoculum 6.3 × 10^4): 1 | Mycoplasma Isolated Chickens ([5]; inoculum 6.3 × 10^4): 1 | Change of air-sac, right: + (chickens) [5, 10]: 0 | Change of air-sac, right: - (chickens) [5, 10]: 5 | Index of Disease ([5]; inoculum 6.3 × 10^4, range 0-9.0, calcium salt): 0 | Index of Isolation [5]: 0.2

CC[C@H]1OC(=O)C[C@@H](O)[C@H](C)[C@@H](O[C@@H]2O[C@H](C)[C@@H](O[C@H]3C[C@@](C)(O)[C@@H](O)[C@H](C)O3)[C@H](N(C)C)[C@H]2O)[C@@H](CC=O)C[C@@H](C)C(=O)/C=C/C(C)=C/[C@@H]1CO[C@@H]1O[C@H](C)[C@@H](O)[C@@H](OC)[C@H]1OC [tylosin, reference compound]
Change of air-sac, left: + (chickens) [6, 11]: 0 | Change of air-sac, left: ++ (chickens) [6, 11]: 2 | Change of air-sac, left: +++ (chickens) [6, 11]: 0 | Change of air-sac, left: - (chickens) [6, 11]: 6 | Change of air-sac, right: + (chickens) [6, 11]: 1 | Change of air-sac, right: ++ (chickens) [6, 11]: 5 | Change of air-sac, right: +++ (chickens) [6, 11]: 1 | Change of air-sac, right: - (chickens) [6, 11]: 1 | Isolation, L (left air-sac) [6, 11]: 8 | Isolation, R (right air-sac) [6, 11]: 7 | Isolation, T (trachea) [6, 11]: 8 | Mycoplasma Isolated Chickens [6, 11]: 8 | Index of Isolation ([6]; 100 mg/kg × once oral, 10 mg/ml sol. b, inoculum 10^2, range 0-6.0): 5.60 | Index of Disease ([6]; 100 mg/kg × once oral, 10 mg/ml sol. b, inoculum 10^2, range 0-9.0): 2.80 | Change of air-sac, left: + (chickens) [6, 12]: 0 | Change of air-sac, left: ++ (chickens) [6, 12]: 0 | Change of air-sac, left: +++ (chickens) [6, 12]: 0 | Change of air-sac, left: - (chickens) [6, 12]: 5 | Change of air-sac, right: + (chickens) [6, 12]: 0 | Change of air-sac, right: ++ (chickens) [6, 12]: 1 | Change of air-sac, right: +++ (chickens) [6, 12]: 4 | Change of air-sac, right: - (chickens) [6, 12]: 0 | Isolation, L (left air-sac) [6, 12]: 4 | Isolation, R (right air-sac) [6, 12]: 5 | Isolation, T (trachea) [6, 12]: 5 | Mycoplasma Isolated Chickens [6, 12]: 5 | Index of Isolation ([6]; 200 mg/kg × once oral, 20 mg/ml DW, inoculum 1.9 × 10^5, range 0-6.0): 5.4 | Index of Disease ([6]; 200 mg/kg × once oral, 20 mg/ml DW, inoculum 1.9 × 10^5, range 0-9.0): 2.8 | Change of air-sac, left: + (chickens) ([7]; inoculum 0.3 × 10^5): 1 | Change of air-sac, left: ++ (chickens) ([7]; inoculum 0.3 × 10^5): 0 | Change of air-sac, left: +++ (chickens) ([7]; inoculum 0.3 × 10^5): 0 | Change of air-sac, left: - (chickens) ([7]; inoculum 0.3 × 10^5): 5 | Change of air-sac, right: + (chickens) ([7]; inoculum 0.3 × 10^5): 0 | Change of air-sac, right: ++ (chickens) ([7]; inoculum 0.3 × 10^5): 3 | Change of air-sac, right: +++ (chickens) ([7]; inoculum 0.3 × 10^5): 3 | Change of air-sac, right: - (chickens) ([7]; inoculum 0.3 × 10^5): 0 | Isolation, L (left air-sac) ([7]; inoculum 0.3 × 10^5): 6 | Isolation, R (right air-sac) ([7]; inoculum 0.3 × 10^5): 6 | Isolation, T (trachea) ([7]; inoculum 0.3 × 10^5): 6 | Mycoplasma Isolated Chickens ([7]; inoculum 0.3 × 10^5): 6 | Index of Isolation ([7]; inoculum 0.3 × 10^5, range 0-6.0): 6.0 | Index of Disease ([7]; inoculum 0.3 × 10^5, range 0-9.0): 2.8

O=C(COc1cccccc1=O)c1ccccc1 [Compound 21, O-(Benzoylmethyl)tropolone]
MIC [1, 8]: 0.78 µg/mL (≈ 3.25 µM) | MIC [4, 9]: 0.2 µg/mL (≈ 0.832 µM)

C=CCOc1cccccc1=O [Compound 22, O-Allyltropolone]
MIC [1, 8]: > 25 µg/mL | MIC [4, 9]: 25 µg/mL (≈ 154 µM)

CC(Oc1cccccc1=O)C(=O)O (stereo not drawn) [Compound 17, O-(1-Carboxyethyl)tropolone]
MIC [1, 8]: > 25 µg/mL | MIC [4, 9]: > 25 µg/mL
